Data on 37 compounds can be found in patent publication US20240254119A1 (THIRD HARMONIC BIO, INC., priority 2022, published 2024).

The assay deals with T1, wtKIT (Homo sapiens, UniProt P10721).
T1 construct: 1888289AM in the reaction mixtures
The assay is described as follows: HTRF biochemical assay, wtKIT (phosphorylation of a peptide substrate). Conditions: Table 4. How it is done: Exemplary compounds were tested for ability to inhibit the phosphorylation of a peptide substrate by the tyrosine kinase wt KIT, PDGFRα, or CSF-1R. Assay procedures and results are described below.
Enzyme, substrate, and cofactors (ATP and Mn^2+) are combined in a well of a microtiter plate and incubated for 3 hours at 25° C. At the end of the incubation, the reaction is quenched by the addition of an EDTA-containing buffer.
The substrate used in the CSF-1R and PDGFRα assay is FAM-[…]-CONH2 (FAM is carboxyfluorescein). Peptide should be >95% purity. The substrate for the KIT assay is FAM-[…]-NH2.
• 1. To a well of a 384-wellplate add 5 μL of 2× enzyme buffer (or control). • 2. Add 100 nL of 100× compound. Enzyme and compound may be pre-incubated at this time if desired. • 3. Add 5 μL of 2× substrate buffer. • 4. Incubate plate at 25° C. for 3 hours. • 5. Add 10 uL of anti-phosphotyrosine antibody buffer. • 6. Read plate in BioTek Synergy Reader. Reaction Conditions for wtKIT Assay
• 100 mM HEPES, pH 7.5 0.1% BSA • 0.01% Triton x-100 • 1 mM DTT • 10 mM MnCl2 • 10 μM Sodium Orthovanadate • 10 μM Beta-Glycerophosphate • 400 μM ATP • 1% DMSO (from compound) • 1 μM FAM-[…]-CONH2, 5.0 nM wtKIT Enzyme (1888289AM)* • *Specific activity may vary from lot to lot. Enzyme concentration may need to be adjusted to yield 10-20% conversion of substrate to product.

Each structure is given as a SMILES string.

T1 sequence (P10721 26-976): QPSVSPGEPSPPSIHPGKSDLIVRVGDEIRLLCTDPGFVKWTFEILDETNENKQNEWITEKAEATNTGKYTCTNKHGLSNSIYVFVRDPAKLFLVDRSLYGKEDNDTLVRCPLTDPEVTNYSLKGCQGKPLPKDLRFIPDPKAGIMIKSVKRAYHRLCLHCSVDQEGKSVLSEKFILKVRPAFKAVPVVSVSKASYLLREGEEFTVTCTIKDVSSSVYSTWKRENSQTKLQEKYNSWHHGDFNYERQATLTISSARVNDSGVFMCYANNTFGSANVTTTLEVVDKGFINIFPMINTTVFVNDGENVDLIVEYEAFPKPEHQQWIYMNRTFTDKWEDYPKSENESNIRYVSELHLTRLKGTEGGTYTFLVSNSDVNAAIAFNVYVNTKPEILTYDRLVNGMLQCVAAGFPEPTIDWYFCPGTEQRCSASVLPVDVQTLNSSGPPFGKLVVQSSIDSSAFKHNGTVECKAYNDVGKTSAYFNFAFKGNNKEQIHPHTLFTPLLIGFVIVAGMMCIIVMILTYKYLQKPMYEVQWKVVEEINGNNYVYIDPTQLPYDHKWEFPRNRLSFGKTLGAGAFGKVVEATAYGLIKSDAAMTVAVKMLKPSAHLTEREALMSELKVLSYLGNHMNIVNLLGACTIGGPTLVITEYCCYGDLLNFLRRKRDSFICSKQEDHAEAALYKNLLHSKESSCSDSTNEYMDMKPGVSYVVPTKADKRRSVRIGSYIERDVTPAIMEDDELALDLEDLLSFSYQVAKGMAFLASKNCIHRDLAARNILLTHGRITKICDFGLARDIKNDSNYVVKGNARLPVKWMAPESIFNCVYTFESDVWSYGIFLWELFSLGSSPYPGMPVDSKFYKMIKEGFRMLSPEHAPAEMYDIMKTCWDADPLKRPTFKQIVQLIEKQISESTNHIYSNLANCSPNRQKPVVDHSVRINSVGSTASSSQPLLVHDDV

Usually IC50 stands for the point on the concentration scale where inhibition reaches its midpoint. For `CNC(C)COCc1ccn2c(C(=O)Nc3cc(-c4noc(CC(O)C(F)F)n4)ccc3C)cnc2c1` (stereo not shown) [Compound I-599], the IC50 lay in the range of 50 to 500 nM.

Regarding `Cc1ccc(-c2noc(C[C@H](O)C(F)F)n2)cc1NC(=O)c1cnc2cc(COCc3ccn[nH]3)ccn12` [Compound I-586, (S)-7-(((1H-pyrazol-5-yl)methoxy)methyl)-N-(5-(5-(3,3-difluoro-2-hydroxypropyl)-1,2,4-oxadiazol-3-yl)-2-methylphenyl)imidazo[1,2-a]pyridine-3-carboxamide], the IC50 is not above 50 nM.

Take `Cc1ccn2c(C(=O)Nc3cc(-c4noc(-c5cccnc5)n4)ccc3C)cnc2c1` [Compound I-726]: the IC50 was 50 to 500 nM.

As to `Cc1ccc(-c2noc([C@H]3C[C@@H]3F)n2)cc1NC(=O)c1cnc2cc(CCOCCO)ccn12` [Compound I-475, N-[5-[5-[(1R,2S)-2-fluorocyclopropyl]-1,2,4-oxadiazol-3-yl]-2-methyl-phenyl]-7-[2-(2-hydroxyethoxy)ethyl]imidazo[1,2-a]pyridine-3-carboxamide], the IC50 is not above 50 nM.

As for `CCc1nc(-c2ccc(C)c(NC(=O)c3cnc4cc(COC)ccn34)c2)no1` [Compound I-734], the IC50 was not above 50 nM.

Take `Cc1ccn2c(C(=O)Nc3cc(-c4noc(-c5cccnn5)n4)ccc3C)cnc2c1` [Compound I-550]: the IC50 lay within 50 to 500 nM.

Consider `Cc1ccc(-c2noc(C(C)O)n2)cc1NC(=O)c1cnc2cc(F)ccn12` (stereo not shown) [Compound I-741], for which the IC50 was in the range of 500 to 5000 nM.

In the case of `Cc1ccc(-c2noc([C@H]3C[C@@H]3F)n2)cc1NC(=O)c1cnc2cc(-c3ccn(C)n3)ccn12` [Compound I-529, N-(5-(5-((1R,2S)-2-fluorocyclopropyl)-1,2,4-oxadiazol-3-yl)-2-methylphenyl)-7-(1-methyl-1H-pyrazol-3-yl)imidazo[1,2-a]pyridine-3-carboxamide], the IC50 was not above 50 nM.

Regarding `Cc1nc(-c2ccc(C)c(NC(=O)c3cnc4cc(C5COC5)ccn34)c2)no1` [Compound I-687], the IC50 was in the range of 50 to 500 nM.

With `Cc1ccc(-c2noc([C@H]3C[C@@H]3F)n2)cc1NC(=O)c1cnc2cc([C@H]3C[C@@H]3CO)ccn12` [Compound I-480, N-[5-[5-[(1R,2S)-2-fluorocyclopropyl]-1,2,4-oxadiazol-3-yl]-2-methyl-phenyl]-7-[(1S,2S)-2 (hydroxymethyl)cyclopropyl]imidazo[1,2-a]pyridine-3-carboxamide], the IC50 is not above 50 nM.

On to `COc1ccn2c(C(=O)Nc3cc(-c4noc(-c5ccccc5)n4)ccc3C)cnc2c1` [Compound I-743], for which the IC50 is 500 to 5000 nM.

Consider `Cc1ccn2c(C(=O)Nc3cc(-c4noc(CCC(C)(O)C(F)(F)F)n4)ccc3C)cnc2c1` (single isomer, unassigned) [Compound I-515], for which the IC50 was not above 50 nM.

Take `Cc1ccc(-c2noc([C@H]3C[C@@H]3F)n2)cc1NC(=O)c1cnn2cccc(F)c12` [Compound I-487]: the IC50 was in the range of 50 to 500 nM.

In the case of `Cc1ccc(-c2noc([C@H]3C[C@@H]3F)n2)cc1NC(=O)c1cnc2c(F)c(COCCO)ccn12` [Compound I-472], the IC50 is 50 to 500 nM.

Turning to `Cc1ccc(-c2noc([C@H](O)CO)n2)cc1NC(=O)c1cnc2cc(Cl)ccn12` [Compound I-604], the IC50 was in the range of 500 to 5000 nM.

As to `CCc1nc(-c2ccc(C)c(NC(=O)c3cnc4cc(-c5csc(CO)n5)ccn34)c2)no1` [Compound I-672], the IC50 was not above 50 nM.

Take `Cc1ccc(-c2noc(C[C@H](O)C(F)F)n2)cc1NC(=O)c1cnc2cc(COCc3c[nH]cn3)ccn12` [Compound I-585, (S)-7-(((1H-imidazol-4-yl)methoxy)methyl)-N-(5-(5-(3,3-difluoro-2-hydroxypropyl)-1,2,4-oxadiazol-3-yl)-2-methylphenyl)imidazo[1,2-a]pyridine-3-carboxamide]: the IC50 was not above 50 nM.

Regarding `Cc1ccc(-c2noc([C@H]3C[C@@H]3F)n2)cc1NC(=O)c1cnn2ccc(C(F)F)cc12` [Compound I-494, 5-(difluoromethyl)-N-(5-(5-((1R,2S)-2-fluorocyclopropyl)-1,2,4-oxadiazol-3-yl)-2-methylphenyl)pyrazolo[1,5-a]pyridine-3-carboxamide], the IC50 is not above 50 nM.

For the compound `Cc1ccc(-c2noc([C@H]3C[C@@H]3F)n2)cc1NC(=O)c1cnc2cc(Cl)c(F)cn12` [Compound I-613, 7-Chloro-6-fluoro-N-(5-(5-((1R,2S)-2-fluorocyclopropyl)-1,2,4-oxadiazol-3-yl)-2-methylphenyl)imidazo[1,2-a]pyridine-3-carboxamide], the IC50 was not above 50 nM.

For `COc1ccn2c(C(=O)Nc3cc(-c4noc(-c5cccnc5)n4)ccc3C)cnc2c1` [Compound I-745], the IC50 was not above 50 nM.

Consider `Cc1ccc(-c2noc(C[C@H](O)C(F)F)n2)cc1NC(=O)c1cnc2cc(O)ccn12` [Compound I-574, (S)—N-(5-(5-(3,3-difluoro-2-hydroxypropyl)-1,2,4-oxadiazol-3-yl)-2-methylphenyl)-7-hydroxyimidazo[1,2-a]pyridine-3-carboxamide], for which the IC50 is not above 50 nM.

Turning to `Cc1nc(-c2ccc(C)c(NC(=O)c3cnc4cc(-c5ncsc5CO)ccn34)c2)no1` [Compound I-595, 7-(5-(hydroxymethyl)thiazol-4-yl)-N-(2-methyl-5-(5-methyl-1,2,4-oxadiazol-3-yl)phenyl)imidazo[1,2-a]pyridine-3-carboxamide], the IC50 is not above 50 nM.

Regarding `COc1ccn2c(C(=O)Nc3cc(-c4noc(-c5ccccn5)n4)ccc3C)cnc2c1` [Compound I-536, 7-methoxy-N-(2-methyl-5-(5-(pyridin-2-yl)-1,2,4-oxadiazol-3-yl)phenyl)imidazo[1,2-a]pyridine-3-carboxamide], the IC50 was not above 50 nM.

Regarding `Cc1ccc(-c2noc([C@H]3C[C@@H]3F)n2)cc1NC(=O)c1cnc2ccc(-c3cscn3)cn12` [Compound I-541, N-(5-(5-((1R,2S)-2-fluorocyclopropyl)-1,2,4-oxadiazol-3-yl)-2-methylphenyl)-6-(thiazol-4-yl)imidazo[1,2-a]pyridine-3-carboxamide], the IC50 was not above 50 nM.

Regarding `Cc1ccc(-c2noc(C3CC(NC(=O)OC(C)(C)C)C3)n2)cc1NC(=O)c1cnc2cc(Cl)ccn12` (stereo not shown) [Compound I-747], the IC50 is 50 to 500 nM.

As for `Cc1ccc(-c2noc(C[C@H](O)C(F)F)n2)cc1NC(=O)c1cnc2cc(OCCCCO)ccn12` [Compound I-568, (S)—N-(5-(5-(3,3-difluoro-2-hydroxypropyl)-1,2,4-oxadiazol-3-yl)-2-methylphenyl)-7-(4-hydroxybutoxy)imidazo[1,2-a]pyridine-3-carboxamide], the IC50 is not above 50 nM.

As for `Cc1ccc(-c2ncon2)cc1NC(=O)c1cnc2cc(F)ccn12` [Compound I-744], the half-maximal inhibitory concentration (IC50) was in the range of 500 to 5000 nM.

As to `Cc1ccc(-c2noc(C3CC(N)C3)n2)cc1NC(=O)c1cnc2cc(Cl)ccn12` (stereo not shown) [Compound I-746], the IC50 was 500 to 5000 nM.

On to `Cc1ccn2c(C(=O)Nc3cc(-c4noc(CC5CCCCO5)n4)ccc3C)cnc2c1` (stereo not shown) [Compound I-583, 7-methyl-N-(2-methyl-5-(5-((tetrahydro-2H-pyran-2-yl)methyl)-1,2,4-oxadiazol-3-yl)phenyl)imidazo[1,2-a]pyridine-3-carboxamide], for which the IC50 is not above 50 nM.

Turning to `COc1ccn2c(C(=O)Nc3cc(-c4noc(CCC(C)(C)O)n4)ccc3C)cnc2c1` [Compound I-561, N-(5-(5-(3-hydroxy-3-methylbutyl)-1,2,4-oxadiazol-3-yl)-2-methylphenyl)-7-methoxyimidazo[1,2-a]pyridine-3-carboxamide], the IC50 is not above 50 nM.

On to `Cc1ccc(-c2noc([C@H]3C[C@@H]3F)n2)cc1NC(=O)c1cnc2cc(F)c(Cl)cn12` [Compound I-605], for which the IC50 fell in the range of 50 to 500 nM.

In the case of `COCc1ccn2c(C(=O)Nc3cc(-c4noc(CCN5CCCCC5)n4)ccc3C)cnc2c1` [Compound I-666], the IC50 was in the range of 50 to 500 nM.

Consider `Cc1ccc(-c2noc(C[C@H](O)C(F)F)n2)cc1NC(=O)c1cnc2cc(-c3ccn(C)n3)ccn12` [Compound I-555, (S)—N-(5-(5-(3,3-difluoro-2-hydroxypropyl)-1,2,4-oxadiazol-3-yl)-2-methylphenyl)-7-(1-methyl-1H-pyrazol-3-yl)imidazo[1,2-a]pyridine-3-carboxamide], for which the IC50 was not above 50 nM.

For the compound `Cc1ccc(-c2ncon2)cc1NC(=O)c1cnc2cc(COCCO)ccn12` [Compound I-700], the IC50 lay within 50 to 500 nM.

Regarding `Cc1ccc(-c2noc(CCC(C)(C)O)n2)cc1NC(=O)c1cnn2ccccc12` [Compound I-563], the IC50 lay within 50 to 500 nM.

`Cc1ccc(-c2noc(CC(O)C(C)C)n2)cc1NC(=O)c1cnc2ccccn12` (stereo not shown) [Compound I-525, N-(5-(5-(2-hydroxy-3-methylbutyl)-1,2,4-oxadiazol-3-yl)-2-methylphenyl)imidazo[1,2-a]pyridine-3-carboxamide]: the IC50 is not above 50 nM.

`Cc1ccc(-c2noc([C@H]3C[C@@H]3F)n2)cc1NC(=O)c1cnc2cc(CCOCC(C)(C)O)ccn12` [Compound I-467, N-(5-(5-((1R,2S)-2-fluorocyclopropyl)-1,2,4-oxadiazol-3-yl)-2-methylphenyl)-7-(2-(2-hydroxy-2-methylpropoxy)ethyl)imidazo[1,2-a]pyridine-3-carboxamide]: the IC50 is not above 50 nM.
